From patent US20100041089A1, “IMPROVED METHOD FOR DETECTING CHEMICAL […]” (priority 2006, published 2010)

System: yeast genes (expressed mRNA)
Assay: DNA chip measurement of expressed mRNA of yeast genes after culture with a toxic chemical substance
Type: cell-based, Saccharomyces cerevisiae S288C
Method: Yeast (Saccharomyces cerevisiae S288C (a SUC2mal mel gap2 CUP1)) were cultured at 25° C. on YPD medium (yeast extract 1%, polypeptone 2%, glucose 2%). One of toxic chemical substances was added to the cell at logarithmic growth phase, and the cell was further cultured for two hours. Cell was cultured without any chemical substance in the same condition, and was used as a control. Concentrations of the chemical substances were defined to inhibit the growth of the yeast but not lead to death.
After the completion of cultivation, the culture was centrifuged to collect the cells. To the cells, sodium acetate buffer (50 mM sodium acetate, 10 mM EDTA, 1% SDS) was added, and the mixture was shaken at 65° C. for five minutes, followed by returning to room temperature, and obtaining the supernatant, which procedure was repeated two times. To the supernatant, ½ amount of a solution of phenol/chloroform (1:1) was added, and the mixture was centrifuged to give a supernatant, an equal amount of chloroform was added, and the mixture was centrifuged to give a supernatant. To the supernatant, an equal amount of isopropanol containing 0.3 M sodium acetate was added, and the mixture was allowed to stand at room temperature for 30 minutes, after which the mixture was centrifuged to give sediment of the whole RNAs. Seventy % ethanol was added to the sediment, and the mixture was again centrifuged to give sediment, which was then dried and dissolved in water. mRNA was isolated from the whole RNAs as followings. In view of the fact that a poly A chain is attached to the 3′ terminus of mRNA, a polynucleotide having a poly T structure which was immobilized on the surface of latex beads was used to trap the mRNA, and then the mRNA was washed and eluted with spine column (Oligotex-dT30<Super>mRNA Purification Kit, Takara). Reverse transcription of the mRNA was conducted with a reverse transcriptase (Super Script II Reverse Transcriptase; catalogue No. 18064-014, GibcoBRL) using fluorescence-labeled nucleotides to give cDNAs that were introduced with Cy3-dUTP or Cy5-dUTP during the reverse transcription.
The labeled cDNAs were dissolved in TE buffer (10 mM Tris-HCl/1 mM EDTA, pH 8.0), and the solution was dropped on the DNA chip containing the whole genes of yeast (DNA Chip Research Inc. Japan) so that the cDNAs were hybridized on the DNA chip at 65° C. for over 12 hours. The fluoresces intensity of the DNA chip was read with a scanner, and the ratio relative to the fluorescence intensity resulting from the absence of chemical substance was estimated as the following, which is shown in Tables 1 to 9.
In the Tables, “Intensity” indicated in the rightmost column is a value of the level of expressed mRNA of each gene in control cells as divided by the average level of the expressions of the whole genes. A gene of which mRNA level is lower in control, and is higher in cases of addition of chemical substance, is especially useful in the detection of toxic substances.
Here, when a ratio of an amount of mRNA expressed in the presence of the chemical substance to an amount of mRNA expressed in the absence of the chemical substance is two or more, then it is considered significant.

## N#Cc1c(Cl)c(Cl)c(Cl)c(C#N)c1Cl [(9), 2,4,5,6-Tetrachloro-1,3-benzenedicarbonitrile]
Yeast gene YJL108C, cultured two hours with substance
  The level of expressed mRNA in the presence of chemical substance/The level of expressed mRNA in the absence of chemical substance: 0.3
Yeast gene YJL144W, cultured two hours with substance
  The level of expressed mRNA in the presence of chemical substance/The level of expressed mRNA in the absence of chemical substance: 14.6
Yeast gene YJL149W, cultured two hours with substance
  The level of expressed mRNA in the presence of chemical substance/The level of expressed mRNA in the absence of chemical substance: 1.5
Yeast gene YJL151C, cultured two hours with substance
  The level of expressed mRNA in the presence of chemical substance/The level of expressed mRNA in the absence of chemical substance: 0.5
Yeast gene YJL152W, cultured two hours with substance
  The level of expressed mRNA in the presence of chemical substance/The level of expressed mRNA in the absence of chemical substance: 0.3
Yeast gene YJL161W, cultured two hours with substance
  The level of expressed mRNA in the presence of chemical substance/The level of expressed mRNA in the absence of chemical substance: 3.1
Yeast gene YJL163C, cultured two hours with substance
  The level of expressed mRNA in the presence of chemical substance/The level of expressed mRNA in the absence of chemical substance: 14.5
Yeast gene YJL171C, cultured two hours with substance
  The level of expressed mRNA in the presence of chemical substance/The level of expressed mRNA in the absence of chemical substance: 1.0
Yeast gene YJL186W, cultured two hours with substance
  The level of expressed mRNA in the presence of chemical substance/The level of expressed mRNA in the absence of chemical substance: 0.2
Yeast gene YJR008W, cultured two hours with substance
  The level of expressed mRNA in the presence of chemical substance/The level of expressed mRNA in the absence of chemical substance: 1.8
Yeast gene YJR074W, cultured two hours with substance
  The level of expressed mRNA in the presence of chemical substance/The level of expressed mRNA in the absence of chemical substance: 3.7
Yeast gene YJR085C, cultured two hours with substance
  The level of expressed mRNA in the presence of chemical substance/The level of expressed mRNA in the absence of chemical substance: 3.7
Yeast gene YJR155W
  The level of expressed mRNA in the presence of chemical substance/The level of expressed mRNA in the absence of chemical substance: 38.2
Yeast gene YJR155W, cultured for two hours with substance
  The level of expressed mRNA in the presence of chemical substance/The level of expressed mRNA in the absence of chemical substance: 38.2
Yeast gene YKL071W, cultured two hours with substance
  The level of expressed mRNA in the presence of chemical substance/The level of expressed mRNA in the absence of chemical substance: 162.2
Yeast gene YKL086W, cultured two hours with substance
  The level of expressed mRNA in the presence of chemical substance/The level of expressed mRNA in the absence of chemical substance: 8.2
Yeast gene YKL107W, cultured two hours with substance
  The level of expressed mRNA in the presence of chemical substance/The level of expressed mRNA in the absence of chemical substance: 28.2
Yeast gene YKL151C, cultured two hours with substance
  The level of expressed mRNA in the presence of chemical substance/The level of expressed mRNA in the absence of chemical substance: 3.3
Yeast gene YKL153W, cultured two hours with substance
  The level of expressed mRNA in the presence of chemical substance/The level of expressed mRNA in the absence of chemical substance: 0.8
Yeast gene YKL195W, cultured two hours with substance
  The level of expressed mRNA in the presence of chemical substance/The level of expressed mRNA in the absence of chemical substance: 3.6
Yeast gene YKR091W, cultured two hours with substance
  The level of expressed mRNA in the presence of chemical substance/The level of expressed mRNA in the absence of chemical substance: 1.0
Yeast gene YLL055W (transport facilitation protein gene)
  The level of expressed mRNA in the presence of chemical substance/The level of expressed mRNA in the absence of chemical substance: 19.1
Yeast gene YLL056C, cultured two hours with substance
  The level of expressed mRNA in the presence of chemical substance/The level of expressed mRNA in the absence of chemical substance: 58.8
Yeast gene YLL060C (stress protein genes)
  The level of expressed mRNA in the presence of chemical substance/The level of expressed mRNA in the absence of chemical substance: 13.0
Yeast gene YLL062C, cultured two hours with substance
  The level of expressed mRNA in the presence of chemical substance/The level of expressed mRNA in the absence of chemical substance: 14.9
Yeast gene YLR031W, cultured two hours with substance
  The level of expressed mRNA in the presence of chemical substance/The level of expressed mRNA in the absence of chemical substance: 0.9
Yeast gene YLR054C, cultured two hours with substance
  The level of expressed mRNA in the presence of chemical substance/The level of expressed mRNA in the absence of chemical substance: 2.7
Yeast gene YLR149C, cultured two hours with substance
  The level of expressed mRNA in the presence of chemical substance/The level of expressed mRNA in the absence of chemical substance: 6.2
Yeast gene YLR152C, cultured two hours with substance
  The level of expressed mRNA in the presence of chemical substance/The level of expressed mRNA in the absence of chemical substance: 0.6
Yeast gene YLR194C, cultured two hours with substance
  The level of expressed mRNA in the presence of chemical substance/The level of expressed mRNA in the absence of chemical substance: 0.9
Yeast gene YLR204W, cultured two hours with the substance
  The level of expressed mRNA in the presence of chemical substance/The level of expressed mRNA in the absence of chemical substance: 1.4
Yeast gene YLR205C, cultured two hours with substance
  The level of expressed mRNA in the presence of chemical substance/The level of expressed mRNA in the absence of chemical substance: 1.5
Yeast gene YLR324W, cultured two hours with substance
  The level of expressed mRNA in the presence of chemical substance/The level of expressed mRNA in the absence of chemical substance: 3.1
Yeast gene YLR350W, cultured two hours with substance
  The level of expressed mRNA in the presence of chemical substance/The level of expressed mRNA in the absence of chemical substance: 0.6
Yeast gene YLR387C, cultured two hours with substance
  The level of expressed mRNA in the presence of chemical substance/The level of expressed mRNA in the absence of chemical substance: 7.8
Yeast gene YLR460C, cultured two hours with substance
  The level of expressed mRNA in the presence of chemical substance/The level of expressed mRNA in the absence of chemical substance: 13.9
Yeast gene YML117W, cultured two hours with substance
  The level of expressed mRNA in the presence of chemical substance/The level of expressed mRNA in the absence of chemical substance: 1.0
Yeast gene YMR009W, cultured two hours with substance
  The level of expressed mRNA in the presence of chemical substance/The level of expressed mRNA in the absence of chemical substance: 3.4
Yeast gene YMR067C, cultured two hours with substance
  The level of expressed mRNA in the presence of chemical substance/The level of expressed mRNA in the absence of chemical substance: 4.0
Yeast gene YMR090W, cultured two hours with substance
  The level of expressed mRNA in the presence of chemical substance/The level of expressed mRNA in the absence of chemical substance: 16.7
Yeast gene YMR097C, cultured two hours with substance
  The level of expressed mRNA in the presence of chemical substance/The level of expressed mRNA in the absence of chemical substance: 2.1
Yeast gene YMR102C, cultured two hours with substance
  The level of expressed mRNA in the presence of chemical substance/The level of expressed mRNA in the absence of chemical substance: 1.7
Yeast gene YMR107W, cultured two hours with substance
  The level of expressed mRNA in the presence of chemical substance/The level of expressed mRNA in the absence of chemical substance: 6.0
Yeast gene YMR140W, cultured two hours with substance
  The level of expressed mRNA in the presence of chemical substance/The level of expressed mRNA in the absence of chemical substance: 1.8
Yeast gene YMR180C, cultured two hours with substance
  The level of expressed mRNA in the presence of chemical substance/The level of expressed mRNA in the absence of chemical substance: 1.8
Yeast gene YMR184W, cultured two hours with substance
  The level of expressed mRNA in the presence of chemical substance/The level of expressed mRNA in the absence of chemical substance: 2.1
Yeast gene YMR191W, cultured two hours with substance
  The level of expressed mRNA in the presence of chemical substance/The level of expressed mRNA in the absence of chemical substance: 2.2
Yeast gene YMR195W, cultured two hours with substance
  The level of expressed mRNA in the presence of chemical substance/The level of expressed mRNA in the absence of chemical substance: 0.2
Yeast gene YMR295C, cultured two hours with substance
  The level of expressed mRNA in the presence of chemical substance/The level of expressed mRNA in the absence of chemical substance: 1.0
Yeast gene YMR315W, cultured two hours with substance
  The level of expressed mRNA in the presence of chemical substance/The level of expressed mRNA in the absence of chemical substance: 2.4
